This note sets out measurements from patent US20230391775A1, “SUBSTITUTED DIARYLAMINE COMPOUND, PHARMACEUTICAL COMPOSITION THEREOF, PREPARATION METHOD THEREFOR, AND USE THEREOF” (SUZHOU YABAO PHARMACEUTICAL R&D CO., LTD., priority 2020, published 2023).

In the assay the target is LRRK2 G2019S (Homo sapiens (Human), UniProt Q5S007, G2019S). As to the kind of experiment: Adapta kinase assay (LRRK2_IC50 assay). In kind it is biochemical. The conditions noted are these: Adapta TR-FRET, 1 h, room temperature. How it is done:
In the Adapta™ kinase assay method (LRRK2_IC50 assay): the kinase reaction buffer contained kinase buffer S (Life Technologies, PV5213) and 2 mM DTT (Life Technologies, P2325). The kinases LRRK2 G2019S protein (PV4881) and ERM (LRRKtide, PV5093) were derived from Life Technologies. The Adapta™ universal kinase assay kit (Life Technologies, PV5099) contained the following components: Adapta™ Eu-anti-ADP antibody (PV5097; 4 μg); 10 μM AlexaFluor®647 ADP tracer (PV5098; 200 pmol); TR-FRET dilution buffer (PV3574; 100 mL); kinase quench buffer (P2825; 1 mL); 10 mM ATP (PV3227; 500 μL); and 10 mM ADP (PV5096; 500 μL). LRRK2-IN-1 (1234480-84-2, HY-10875) was derived from MedChem Express.
Adapta™ Kinase Assay Method
Adapta® universal kinase assay method is a uniform fluorescence-based immunoassay for detecting ADP. In contrast to ATP consumption assay, Adapta® assay method was very sensitive to ADP formation, with most signal changes occurring when initially 10-20% ATP was converted to ADP. This made Adapta® universal kinase assay method very suitable for low-activity kinases.
All assays were performed at room temperature (about 21° C.) and were linearly related to time and enzyme concentration under the conditions used. 1× kinase reaction buffer was prepared from 5× kinase buffer S stock solution (listed above), and 10 mL of 1× kinase reaction buffer was prepared by the addition of 2 mL of 5× stock solution to 8 mL of H2O. To the 1× kinase reaction buffer was added 20 μL of 1 M DTT.
A kinase reaction was performed in a low-volume 384-well plate in a volume of 10 μL. Typically, a Greiner plate was used (Catalog #3674 #, low volume, white wall, 784075). Other untreated assay plates that were not tested could also be suitable. The substrate concentration in the assay was 100 μM, and the 1× kinase reaction buffer consisted of 50 mM Tris-HCl (pH 8.5), 10 mM MgCl2, 1 mM EGTA, 0.01% Brij-35 and 2 mM DTT, as well as any other additives that could be necessary for the particular kinase. The kinase reaction was allowed to proceed for 1 h at room temperature, followed by the addition of a formulation of kinase quenching buffer (EDTA; 30 mM), Eu-labeled antibody (6 nM), and tracer (18.9 nM) in TR-FRET dilution buffer (5 μL). The final concentration of the antibody in the assay wells was 2 nM, the final concentration of the tracer was 6.3 nM, and the final concentration of EDTA was 10 mM. The plate was allowed to equilibrate at room temperature for at least 30 min and then read on a plate reader configured for Adapta™ TR-FRET.
The data provided in this document were generated by using BMG LABTECH PHERAstar plate reader and using appropriate filters and instrument settings for Adapta™. Test compounds were screened in wells with 1% DMSO (final). For 8-point titration, a 5-fold serial dilution was made on the basis of a starting concentration.
A general note: TR-FRET usually uses a lanthanide donor and a delayed reading to cut background.

A word on the pIC50: it is −log10 of the IC50, conventionally taken in molar units. Higher therefore signals a low IC50.

Structures are written as SMILES. pIC50: −log10 of the molar value.

Sequence of LRRK2 G2019S (Q5S007 whole entry G2019S): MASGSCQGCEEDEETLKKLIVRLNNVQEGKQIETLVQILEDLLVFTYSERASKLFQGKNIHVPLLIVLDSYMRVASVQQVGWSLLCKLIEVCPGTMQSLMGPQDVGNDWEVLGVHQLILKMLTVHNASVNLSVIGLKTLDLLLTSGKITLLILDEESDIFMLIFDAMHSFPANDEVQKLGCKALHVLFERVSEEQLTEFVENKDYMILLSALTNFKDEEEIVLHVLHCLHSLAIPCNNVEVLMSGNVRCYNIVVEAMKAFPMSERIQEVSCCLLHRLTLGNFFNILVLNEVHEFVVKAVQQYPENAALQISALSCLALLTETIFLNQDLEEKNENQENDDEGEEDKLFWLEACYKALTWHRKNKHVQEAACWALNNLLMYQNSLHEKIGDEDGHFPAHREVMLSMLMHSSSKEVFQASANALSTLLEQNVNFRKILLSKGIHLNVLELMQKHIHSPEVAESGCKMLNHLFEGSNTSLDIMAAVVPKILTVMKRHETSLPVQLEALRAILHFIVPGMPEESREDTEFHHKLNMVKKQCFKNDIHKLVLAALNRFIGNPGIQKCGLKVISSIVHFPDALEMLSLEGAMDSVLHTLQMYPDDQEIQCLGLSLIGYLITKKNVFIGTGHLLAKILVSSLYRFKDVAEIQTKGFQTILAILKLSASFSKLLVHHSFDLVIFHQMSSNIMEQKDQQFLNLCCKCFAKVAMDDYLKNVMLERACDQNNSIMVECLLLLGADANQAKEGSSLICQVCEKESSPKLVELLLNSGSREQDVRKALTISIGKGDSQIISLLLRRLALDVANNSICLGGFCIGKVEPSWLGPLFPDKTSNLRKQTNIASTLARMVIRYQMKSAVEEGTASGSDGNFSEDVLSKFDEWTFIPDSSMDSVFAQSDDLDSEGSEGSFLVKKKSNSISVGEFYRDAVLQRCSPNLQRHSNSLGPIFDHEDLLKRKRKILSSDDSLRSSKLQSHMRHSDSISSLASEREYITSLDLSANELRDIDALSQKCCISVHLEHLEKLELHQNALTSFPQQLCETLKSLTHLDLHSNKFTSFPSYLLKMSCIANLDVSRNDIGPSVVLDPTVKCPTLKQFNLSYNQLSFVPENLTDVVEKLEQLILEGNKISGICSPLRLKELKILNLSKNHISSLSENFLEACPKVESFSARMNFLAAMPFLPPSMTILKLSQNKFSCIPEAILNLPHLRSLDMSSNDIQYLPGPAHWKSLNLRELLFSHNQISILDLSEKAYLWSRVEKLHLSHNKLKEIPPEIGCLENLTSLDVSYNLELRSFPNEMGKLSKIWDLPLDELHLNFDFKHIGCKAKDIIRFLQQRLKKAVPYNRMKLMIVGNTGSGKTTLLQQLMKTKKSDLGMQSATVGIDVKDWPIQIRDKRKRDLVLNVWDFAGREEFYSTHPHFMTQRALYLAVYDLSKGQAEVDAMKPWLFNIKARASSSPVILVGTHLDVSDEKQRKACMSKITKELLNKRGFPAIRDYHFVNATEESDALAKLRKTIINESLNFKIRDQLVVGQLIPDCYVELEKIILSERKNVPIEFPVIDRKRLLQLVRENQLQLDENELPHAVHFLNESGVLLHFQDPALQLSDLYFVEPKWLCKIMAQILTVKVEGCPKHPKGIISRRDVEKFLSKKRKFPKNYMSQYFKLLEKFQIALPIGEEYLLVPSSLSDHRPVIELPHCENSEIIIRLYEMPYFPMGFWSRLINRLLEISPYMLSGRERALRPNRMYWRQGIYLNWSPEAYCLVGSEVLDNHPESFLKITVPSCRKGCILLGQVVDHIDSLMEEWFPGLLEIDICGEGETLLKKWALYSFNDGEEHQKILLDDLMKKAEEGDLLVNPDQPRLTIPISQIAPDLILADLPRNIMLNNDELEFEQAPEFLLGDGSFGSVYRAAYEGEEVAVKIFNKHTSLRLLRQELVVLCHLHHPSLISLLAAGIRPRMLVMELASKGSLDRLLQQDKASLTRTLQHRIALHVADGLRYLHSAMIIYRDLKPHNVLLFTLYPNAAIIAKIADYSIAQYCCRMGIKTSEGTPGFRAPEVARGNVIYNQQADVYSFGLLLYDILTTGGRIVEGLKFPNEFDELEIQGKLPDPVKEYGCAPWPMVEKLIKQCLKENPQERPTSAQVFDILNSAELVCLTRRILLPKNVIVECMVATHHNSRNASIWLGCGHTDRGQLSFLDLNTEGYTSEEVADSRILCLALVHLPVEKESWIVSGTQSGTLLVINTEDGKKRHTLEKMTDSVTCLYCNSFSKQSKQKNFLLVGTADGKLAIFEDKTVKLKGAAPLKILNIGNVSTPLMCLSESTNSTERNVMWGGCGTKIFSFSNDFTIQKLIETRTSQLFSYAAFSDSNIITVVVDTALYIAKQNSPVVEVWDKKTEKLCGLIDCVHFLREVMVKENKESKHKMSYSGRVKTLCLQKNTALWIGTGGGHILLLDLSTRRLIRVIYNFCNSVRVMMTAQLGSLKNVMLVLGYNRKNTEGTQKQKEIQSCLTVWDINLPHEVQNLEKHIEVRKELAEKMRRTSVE

In turn, `CCOc1nc(Nc2ccc(C(N3CCOCC3)C(F)(F)F)cc2OC)nc2[nH]ccc12` (single isomer, unassigned) [Compound 1, 4-ethoxy-N-(2-methoxy-4-(2,2,2-trifluoro-1-morpholinoethyl)phenyl)-7H-pyrrolo[2,3-d]pyrimidin-2-amine] gave a pIC50 of 7.92.
The result for `CCOc1nc(Nc2ccc(C(C)(N3CCOCC3)C(F)(F)F)cc2OC)nc2[nH]ccc12` (single isomer, unassigned) [Compound 2, 4-ethoxy-N-(2-methoxy-4-(1,1,1-trifluoro-2-morpholinylpropan-2-yl)phenyl)-7H-pyrrolo[2,3-d]pyrimidin-2-amine] reads 7.26.
Under `COc1cc(C(N2CCOCC2)C(F)(F)F)ccc1Nc1nc(OCC(F)(F)F)c2cc[nH]c2n1` (single isomer, unassigned) [Compound 5] stands 7.77; under `COc1cc(C(N2CCOCC2)C(F)(F)F)ccc1Nc1nc(OCC(F)(F)F)c2cc[nH]c2n1` (single isomer, unassigned) [Compound 6], 7.92; under `COc1cc(C(N2C[C@@H]3C[C@H]2CO3)C(F)(F)F)ccc1Nc1nc(OCC(F)(F)F)c2cc[nH]c2n1` (single isomer, unassigned) [Compound 7], 7.33.
On to `COc1cc(C(N2C[C@@H]3C[C@H]2CO3)C(F)(F)F)ccc1Nc1nc(OCC(F)(F)F)c2cc[nH]c2n1` (single isomer, unassigned) [Compound 8], for which the negative logarithm of the IC50 (pIC50) is 7.28.
Under `CCOc1nc(Nc2ccc(C(N3C[C@@H]4C[C@H]3CO4)C(F)(F)F)cc2OC)nc2[nH]ccc12` (single isomer, unassigned) [Compound 9] stands 8.15; under `CCOc1nc(Nc2ccc(C(N3C[C@@H]4C[C@H]3CO4)C(F)(F)F)cc2OC)nc2[nH]ccc12` (single isomer, unassigned) [Compound 10], 7.96; under `COCCOc1nc(Nc2ccc(C(N3CCOCC3)C(F)(F)F)cc2OC)nc2[nH]ccc12` (single isomer, unassigned) [Compound 11], 8.22.
`COCCOc1nc(Nc2ccc(C(N3CCOCC3)C(F)(F)F)cc2OC)nc2[nH]ccc12` (single isomer, unassigned) [Compound 12] gave a pIC50 of 7.92.
The result for `CCOc1nc(Nc2ccc(C(N3CCOCC3)C(F)(F)F)cc2F)nc2[nH]ccc12` (single isomer, unassigned) [Compound 13] reads 7.51.
On to `CCOc1nc(Nc2ccc(C(N3CCOCC3)C(F)(F)F)cc2F)nc2[nH]ccc12` (single isomer, unassigned) [Compound 14], for which the pIC50 was 7.52.
`COc1cc(C(N2CCOCC2)C(F)(F)F)ccc1Nc1ncc2cc[nH]c2n1` (single isomer, unassigned) [Compound 15] gave a pIC50 of 6.48.
In turn, `COc1cc(C(N2CCOCC2)C(F)(F)F)ccc1Nc1ncc2cc[nH]c2n1` (single isomer, unassigned) [Compound 16] had a pIC50 of 6.37.
The result for `COc1cc(C(N2CCOCC2)C(F)(F)F)ccc1Nc1nc(C)c2cc[nH]c2n1` (single isomer, unassigned) [Compound 17] reads 6.69; that for `COc1cc(C(N2CCOCC2)C(F)(F)F)ccc1Nc1nc(C)c2cc[nH]c2n1` (single isomer, unassigned) [Compound 18], 6.60; that for `CCc1nc(Nc2ccc(C(N3CCOCC3)C(F)(F)F)cc2OC)nc2[nH]ccc12` (single isomer, unassigned) [Compound 19], 6.48.
`CCc1nc(Nc2ccc(C(N3CCOCC3)C(F)(F)F)cc2OC)nc2[nH]ccc12` (single isomer, unassigned) [Compound 20] gave a negative-log IC50 (pIC50) of 6.63.
On to `CCOc1nc(Nc2ccc(C(N3CCOCC3)C(F)(F)F)cc2Cl)nc2[nH]ccc12` (single isomer, unassigned) [Compound 21], for which the negative logarithm of the IC50 (pIC50) was 6.92.
Under `CCOc1nc(Nc2ccc(C(N3CCOCC3)C(F)(F)F)cc2Cl)nc2[nH]ccc12` (single isomer, unassigned) [Compound 22] stands 6.86; under `COc1nc(Nc2ccc(C(N3CCOCC3)C(F)(F)F)cc2Cl)nc2[nH]ccc12` (single isomer, unassigned) [Compound 23], 6.83; under `COc1nc(Nc2ccc(C(N3CCOCC3)C(F)(F)F)cc2Cl)nc2[nH]ccc12` (single isomer, unassigned) [Compound 24], 6.91.
With `CCOc1nc(Nc2ccc(C(N3CCOCC3)C(F)(F)F)cc2CC)nc2[nH]ccc12` (single isomer, unassigned) [Compound 25], the pIC50 is 6.85.
Under `CCOc1nc(Nc2ccc(C(N3CCOCC3)C(F)(F)F)cc2CC)nc2[nH]ccc12` (single isomer, unassigned) [Compound 26] stands 7.15; under `COc1cc(C(N2CCOCC2)C(F)(F)F)ccc1Nc1nc(OCCO)c2cc[nH]c2n1` (single isomer, unassigned) [Compound 27], 8.30; under `COc1cc(C(N2CCOCC2)C(F)(F)F)ccc1Nc1nc(OCCO)c2cc[nH]c2n1` (single isomer, unassigned) [Compound 28], 8.30.
The result for `CCOc1nc(Nc2ccc(C(N3CCN(C)CC3)C(F)(F)F)cc2OC)nc2[nH]ccc12` (single isomer, unassigned) [Compound 29] reads 7.92; that for `CCOc1nc(Nc2ccc(C(N3CCN(C)CC3)C(F)(F)F)cc2OC)nc2[nH]ccc12` (single isomer, unassigned) [Compound 30], 7.66.
Under `CCOc1nc(Nc2ccc(C(N3CCN4CCC[C@@H]4C3)C(F)(F)F)cc2OC)nc2[nH]ccc12` (single isomer, unassigned) [Compound 31] stands 7.19; under `CCOc1nc(Nc2ccc(C(N3CCN4CCC[C@@H]4C3)C(F)(F)F)cc2OC)nc2[nH]ccc12` (single isomer, unassigned) [Compound 32], 7.57.
Compound `CCOc1nc(Nc2ccc(C(N3C[C@H]4C[C@@H]3CO4)C(F)(F)F)cc2OC)nc2[nH]ccc12` (single isomer, unassigned) [Compound 33] gave a pIC50 of 8.00.
Under `CCOc1nc(Nc2ccc(C(N3C[C@H]4C[C@@H]3CO4)C(F)(F)F)cc2OC)nc2[nH]ccc12` (single isomer, unassigned) [Compound 34] stands 8.10; under `CCOc1nc(Nc2ccc(C(C)(N3CCOCC3)C(F)(F)F)cc2OC)nc2[nH]ccc12` (single isomer, unassigned) [Compound 35, 4-ethoxy-N-(2-methoxy-4-(1,1,1-trifluoro-2-morpholinopropan-2-yl)phenyl)-7H-pyrrolo[2,3-d]pyrimidin-2-amine], 6.56; under `CCOc1nc(Nc2ccc(C3(N4CCOCC4)CC3)cc2OC)nc2[nH]ccc12` [Compound 3, 4-ethoxy-N-(2-methoxy-4-(1-morpholinocyclopropyl)phenyl)-7H-pyrrolo[2,3-d]pyrimidin-2-amine], 8.15.
Under `CCOc1nc(Nc2cc(F)c(C3(N4CCOCC4)CC3)cc2OC)nc2[nH]ccc12` [Compound 36] stands 7.42; under `CNc1nc(Nc2cc(F)c(C3(N4CCOCC4)CC3)cc2OC)ncc1C(F)(F)F` [Compound 37], 7.47.
Compound `COc1cc(C2(N3CCOCC3)CC2)c(F)cc1Nc1nc(OC)c2cc[nH]c2n1` [Compound 38] gave a pIC50 of 7.60.
